Measurements as given in patent US20260027068A1, “METHODS OF ADM[…]-KETAMINE” (Perception Neuroscience, Inc., priority 2022, published 2026).

Assays:
subjects with TRD = test: Modified Observer's Assessment of Alertness/Sedation (MOAA/S)
Description: The Investigational Medicinal Product (IMP) R(−)-ketamine hydrochloride in sterile water for intravenous injection was investigated as an […] treatment of TRD. The International Union of Pure and Applied Chemistry (IUPAC) name is of the IMP is (2R)-2-(2-chlorophenyl)-2-(methylamino)cyclohexan-1-one. Subjects received the solution at either 30 mg or 60 mg dose, or a placebo. The IMP or placebo was administered on Day 1 as a single IV infusion via an electronic infusion pump over 40 minutes. The duration of study participation for each subject was up to 29 days including a screening period, a 3-day in-clinic visit, and 2 follow-up visits. 101 subjects were enrolled in approximately 20 study centers in the EU and the US.
The MOAA/S will were to determine if R(−)-ketamine causes the side effect of sedation and to what degree. Sedation was evaluated by the study staff using the MOAA/S. The observer recorded the subject's alertness pre-dose, every 20 minutes for first 2 hours post-dose, and at 4 and 6 hours after the start of the infusion.

CYP2B6 = conditions: in vitro
CYP2C19 = CYP2C19 (Homo sapiens, UniProt P33261); test: In vitro CYP inhibition
rats = test: Anhedonic or negative affective side effects
[1] = test system: cytochrome P450 (CYP) isoforms; test: In vitro drug metabolism: CYP isoforms involved
[2] = 30 mg, 10 min post start of infusion, n 10
[3] = 30 mg, 20 min post start of infusion, n 33
[4] = 30 mg, 30 min post start of infusion, n 10
[5] = 30 mg, 40 min post start of infusion, n 33
[6] = 30 mg, 50 min post start of infusion, n 10
[7] = 30 mg, 1 hour 10 min post start of infusion, n 10
[8] = 30 mg, 1 hour 20 min post start of infusion, n 33
[9] = 30 mg, 1 hour 30 min post start of infusion, n 10
[10] = 30 mg, 1 hour 40 min post start of infusion, n 33
[11] = 30 mg, 1 hour 50 min post start of infusion, n 10
[12] = 30 mg, 1 hour post start of infusion, n 33
[13] = 30 mg, to 10 min post-start, n 10
[14] = 30 mg, to 20 min post-start, n 33
[15] = 30 mg, to 30 min post-start, n 10
[16] = 30 mg, to 40 min post-start, n 33
[17] = 30 mg, to 50 min post-start, n 10
[18] = 30 mg, to 1 hour 10 min post-start, n 10
[19] = 30 mg, to 1 hour 20 min post-start, n 33
[20] = 30 mg, to 1 hour 30 min post-start, n 10
[21] = 30 mg, to 1 hour 40 min post-start, n 33
[22] = 30 mg, to 1 hour 50 min post-start, n 10
[23] = 30 mg, to 1 hour post-start, n 33
[24] = 60 mg, 10 min post start of infusion, n 11
[25] = 60 mg, 20 min post start of infusion, n 35
[26] = 60 mg, 30 min post start of infusion, n 11
[27] = 60 mg, 40 min post start of infusion, n 35
[28] = 60 mg, 50 min post start of infusion, n 11
[29] = 60 mg, 1 hour 10 min post start of infusion, n 11
[30] = 60 mg, 1 hour 20 min post start of infusion, n 34
[31] = 60 mg, 1 hour 30 min post start of infusion, n 11
[32] = 60 mg, 1 hour 40 min post start of infusion, n 35
[33] = 60 mg, 1 hour 50 min post start of infusion, n 11
[34] = 60 mg, 1 hour post start of infusion, n 35
[35] = 60 mg, to 10 min post-start, n 11
[36] = 60 mg, to 20 min post-start, n 35
[37] = 60 mg, to 30 min post-start, n 11
[38] = 60 mg, to 40 min post-start, n 35
[39] = 60 mg, to 50 min post-start, n 11
[40] = 60 mg, to 1 hour 10 min post-start, n 11
[41] = 60 mg, to 1 hour 20 min post-start, n 34
[42] = 60 mg, to 1 hour 30 min post-start, n 11
[43] = 60 mg, to 1 hour 40 min post-start, n 35
[44] = 60 mg, to 1 hour 50 min post-start, n 11
[45] = 60 mg, to 1 hour post-start, n 35

CYP2C19, sequence (P33261 whole entry): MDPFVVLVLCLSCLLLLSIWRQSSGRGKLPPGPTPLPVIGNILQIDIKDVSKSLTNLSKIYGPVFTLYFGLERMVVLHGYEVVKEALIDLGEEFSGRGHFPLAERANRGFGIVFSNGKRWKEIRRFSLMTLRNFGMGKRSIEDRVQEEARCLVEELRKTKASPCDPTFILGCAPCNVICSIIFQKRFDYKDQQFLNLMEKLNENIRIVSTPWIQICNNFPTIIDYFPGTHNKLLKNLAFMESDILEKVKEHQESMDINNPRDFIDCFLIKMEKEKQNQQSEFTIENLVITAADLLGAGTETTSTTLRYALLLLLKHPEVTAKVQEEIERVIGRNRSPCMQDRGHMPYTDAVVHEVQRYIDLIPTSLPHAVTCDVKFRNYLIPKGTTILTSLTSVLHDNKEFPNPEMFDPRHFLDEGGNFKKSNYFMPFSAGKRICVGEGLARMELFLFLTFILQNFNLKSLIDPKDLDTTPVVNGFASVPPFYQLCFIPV

CN[C@@]1(c2ccccc2Cl)CCCCC1=O [PCN 101]
MOAA/S score, Mean (subjects with TRD; [2]): 5.0
MOAA/S score, Median (subjects with TRD; [2]): 5.0
MOAA/S score, Mean (subjects with TRD; [3]): 4.9
MOAA/S score, Median (subjects with TRD; [3]): 5.0
MOAA/S score, Mean (subjects with TRD; [4]): 4.9
MOAA/S score, Median (subjects with TRD; [4]): 5.0
MOAA/S score, Mean (subjects with TRD; [5]): 4.8
MOAA/S score, Median (subjects with TRD; [5]): 5.0
MOAA/S score, Mean (subjects with TRD; [6]): 4.9
MOAA/S score, Median (subjects with TRD; [6]): 5.0
MOAA/S score, Mean (subjects with TRD; [7]): 5.0
MOAA/S score, Median (subjects with TRD; [7]): 5.0
MOAA/S score, Mean (subjects with TRD; [8]): 4.8
MOAA/S score, Median (subjects with TRD; [8]): 5.0
MOAA/S score, Mean (subjects with TRD; [9]): 5.0
MOAA/S score, Median (subjects with TRD; [9]): 5.0
MOAA/S score, Mean (subjects with TRD; [10]): 4.9
MOAA/S score, Median (subjects with TRD; [10]): 5.0
MOAA/S score, Mean (subjects with TRD; [11]): 5.0
MOAA/S score, Median (subjects with TRD; [11]): 5.0
MOAA/S score, Mean (subjects with TRD; [12]): 4.8
MOAA/S score, Median (subjects with TRD; [12]): 5.0
MOAA/S score, Mean (subjects with TRD; 30 mg, 2 hours, n 33): 5.0
MOAA/S score, Median (subjects with TRD; 30 mg, 2 hours, n 33): 5.0
MOAA/S score, Mean (subjects with TRD; 30 mg, 4 hours, n 31): 5.0
MOAA/S score, Median (subjects with TRD; 30 mg, 4 hours, n 31): 5.0
MOAA/S score, Mean (subjects with TRD; 30 mg, 6 hours, n 31): 5.0
MOAA/S score, Median (subjects with TRD; 30 mg, 6 hours, n 31): 5.0
MOAA/S change from baseline, Mean (subjects with TRD; [13]): 0.0
MOAA/S change from baseline, Median (subjects with TRD; [13]): 0.0
MOAA/S change from baseline, Mean (subjects with TRD; [14]): −0.1
MOAA/S change from baseline, Median (subjects with TRD; [14]): 0.0
MOAA/S change from baseline, Mean (subjects with TRD; [15]): −0.1
MOAA/S change from baseline, Median (subjects with TRD; [15]): 0.0
MOAA/S change from baseline, Mean (subjects with TRD; [16]): −0.2
MOAA/S change from baseline, Median (subjects with TRD; [16]): 0.0
MOAA/S change from baseline, Mean (subjects with TRD; [17]): −0.1
MOAA/S change from baseline, Median (subjects with TRD; [17]): 0.0
MOAA/S change from baseline, Mean (subjects with TRD; [18]): 0.0
MOAA/S change from baseline, Median (subjects with TRD; [18]): 0.0
MOAA/S change from baseline, Mean (subjects with TRD; [19]): −0.2
MOAA/S change from baseline, Median (subjects with TRD; [19]): 0.0
MOAA/S change from baseline, Mean (subjects with TRD; [20]): 0.0
MOAA/S change from baseline, Median (subjects with TRD; [20]): 0.0
MOAA/S change from baseline, Mean (subjects with TRD; [21]): −0.1
MOAA/S change from baseline, Median (subjects with TRD; [21]): 0.0
MOAA/S change from baseline, Mean (subjects with TRD; [22]): 0.0
MOAA/S change from baseline, Median (subjects with TRD; [22]): 0.0
MOAA/S change from baseline, Mean (subjects with TRD; [23]): −0.2
MOAA/S change from baseline, Median (subjects with TRD; [23]): 0.0
MOAA/S change from baseline, Mean (subjects with TRD; 30 mg, to 2 hours, n 33): −0.0
MOAA/S change from baseline, Median (subjects with TRD; 30 mg, to 2 hours, n 33): 0.0
MOAA/S change from baseline, Mean (subjects with TRD; 30 mg, to 4 hours, n 31): 0.0
MOAA/S change from baseline, Median (subjects with TRD; 30 mg, to 4 hours, n 31): 0.0
MOAA/S change from baseline, Mean (subjects with TRD; 30 mg, to 6 hours, n 31): 0.0
MOAA/S change from baseline, Median (subjects with TRD; 30 mg, to 6 hours, n 31): 0.0
MOAA/S score, Mean (subjects with TRD; [24]): 4.9
MOAA/S score, Median (subjects with TRD; [24]): 5.0
MOAA/S score, Mean (subjects with TRD; [25]): 4.8
MOAA/S score, Median (subjects with TRD; [25]): 5.0
MOAA/S score, Mean (subjects with TRD; [26]): 4.9
MOAA/S score, Median (subjects with TRD; [26]): 5.0
MOAA/S score, Mean (subjects with TRD; [27]): 4.8
MOAA/S score, Median (subjects with TRD; [27]): 5.0
MOAA/S score, Mean (subjects with TRD; [28]): 4.9
MOAA/S score, Median (subjects with TRD; [28]): 5.0
MOAA/S score, Mean (subjects with TRD; [29]): 5.0
MOAA/S score, Median (subjects with TRD; [29]): 5.0
MOAA/S score, Mean (subjects with TRD; [30]): 4.8
MOAA/S score, Median (subjects with TRD; [30]): 5.0
MOAA/S score, Mean (subjects with TRD; [31]): 5.0
MOAA/S score, Median (subjects with TRD; [31]): 5.0
MOAA/S score, Mean (subjects with TRD; [32]): 4.8
MOAA/S score, Median (subjects with TRD; [32]): 5.0
MOAA/S score, Mean (subjects with TRD; [33]): 5.0
MOAA/S score, Median (subjects with TRD; [33]): 5.0
MOAA/S score, Mean (subjects with TRD; [34]): 4.8
MOAA/S score, Median (subjects with TRD; [34]): 5.0
MOAA/S score, Mean (subjects with TRD; 60 mg, 2 hours, n 35): 4.8
MOAA/S score, Median (subjects with TRD; 60 mg, 2 hours, n 35): 5.0
MOAA/S score, Mean (subjects with TRD; 60 mg, 4 hours, n 32): 4.9
MOAA/S score, Median (subjects with TRD; 60 mg, 4 hours, n 32): 5.0
MOAA/S score, Mean (subjects with TRD; 60 mg, 6 hours, n 32): 5.0
MOAA/S score, Median (subjects with TRD; 60 mg, 6 hours, n 32): 5.0
MOAA/S change from baseline, Mean (subjects with TRD; [35]): −0.1
MOAA/S change from baseline, Median (subjects with TRD; [35]): 0.0
MOAA/S change from baseline, Mean (subjects with TRD; [36]): −0.2
MOAA/S change from baseline, Median (subjects with TRD; [36]): 0.0
MOAA/S change from baseline, Mean (subjects with TRD; [37]): −0.1
MOAA/S change from baseline, Median (subjects with TRD; [37]): 0.0
MOAA/S change from baseline, Mean (subjects with TRD; [38]): −0.2
MOAA/S change from baseline, Median (subjects with TRD; [38]): 0.0
MOAA/S change from baseline, Mean (subjects with TRD; [39]): −0.1
MOAA/S change from baseline, Median (subjects with TRD; [39]): 0.0
MOAA/S change from baseline, Mean (subjects with TRD; [40]): 0.0
MOAA/S change from baseline, Median (subjects with TRD; [40]): 0.0
MOAA/S change from baseline, Mean (subjects with TRD; [41]): −0.2
MOAA/S change from baseline, Median (subjects with TRD; [41]): 0.0
MOAA/S change from baseline, Mean (subjects with TRD; [42]): 0.0
MOAA/S change from baseline, Median (subjects with TRD; [42]): 0.0
MOAA/S change from baseline, Mean (subjects with TRD; [43]): −0.2
MOAA/S change from baseline, Median (subjects with TRD; [43]): 0.0
MOAA/S change from baseline, Mean (subjects with TRD; [44]): 0.0
MOAA/S change from baseline, Median (subjects with TRD; [44]): 0.0
MOAA/S change from baseline, Mean (subjects with TRD; [45]): −0.2
MOAA/S change from baseline, Median (subjects with TRD; [45]): 0.0
MOAA/S change from baseline, Mean (subjects with TRD; 60 mg, to 2 hours, n 35): −0.2
MOAA/S change from baseline, Median (subjects with TRD; 60 mg, to 2 hours, n 35): 0.0
MOAA/S change from baseline, Mean (subjects with TRD; 60 mg, to 4 hours, n 32): −0.1
MOAA/S change from baseline, Median (subjects with TRD; 60 mg, to 4 hours, n 32): 0.0
MOAA/S change from baseline, Mean (subjects with TRD; 60 mg, to 6 hours, n 32): 0.0
MOAA/S change from baseline, Median (subjects with TRD; 60 mg, to 6 hours, n 32): 0.0

CN[C@@]1(c2ccccc2Cl)CCCCC1=O.Cl [R(−)-ketamine, (2R)-2-(2-chlorophenyl)-2-(methylamino)cyclohexan-1-one]
CYP2B6 induction (CYP2B6): inducer
CYP2C19 inhibition (CYP2C19): inhibitor
Anhedonic or negative affective side effects (rats): no anhedonic or negative affective side effects
Subjects with post-baseline MOASS <5, number (subjects with TRD; 30 mg (n = 33)): 9 n
Subjects with post-baseline MOASS <5, percent (subjects with TRD; 30 mg (n = 33)): (27.3) %
Subjects with post-baseline MOASS <5, number (subjects with TRD; 60 mg (n = 35)): 12 n
Subjects with post-baseline MOASS <5, percent (subjects with TRD; 60 mg (n = 35)): (34.3) %
CYP isoforms involved in the metabolism [1]: primarily CYP2B6, CYP3A4/5, and CYP2C19
